Patent publication US5217960A, “Erythromycin derivatives” (priority 1991, dated 1993)
In brackets after ≈: the same amount, converted by molar mass. Where two headings read alike, the source gives them in different places.

Key:
Format in all cases: cell-based
[1] = system: M[…] ATCC 9341; assay: In vitro antibacterial activity, agar dilution MIC; conditions: Micrococcus luteus, ATCC9341, 24 h
Experimental: (§1) Representative compounds of the present invention were assayed in vitro for antibacterial activity as follows: Twelve petri dishes containing successive aqueous dilutions of the test compound mixed with 10 ml of sterilized Brain Heart Infusion (BHI) agar (Difco 0418-01-5) were prepared. Each plate was inoculated with 1:100 (or 1:10 for slow-growing strains, such as Micrococcus and Streptococcus) dilutions of up to 32 different microorganisms, using a Steers replicator block. The inoculated plates were incubated at 35°-37° C. for 20 to 24 hours. In addition, a control plate, using BHI agar containing no test compound, was prepared and incubated at the beginning and end of each test.
(§2) An additional plate containing a compound having known susceptibility patterns for the organisms being tested and belonging to the same antibiotic class as the test compound was also prepared and incubated as a further control, as well as to provide test-to-test comparability. Erythromycin A was used for this purpose.
(§3) After incubation, each disk was read. The minimum inhibitory concentration (MIC) was defined as the lowest concentration of drug yielding no growth, a slight haze, or sparsely isolated colonies on the inoculum spot as compared to the growth control. The results of this assay, shown below in Tables 1 and 2, support the conclusion that the compounds of the invention are effective antibacterial agents.

[2] = system: PSEUDOMONAS AERUGINOSA K799/61; assay: In vitro antibacterial activity, agar dilution MIC
Experimental: as §1, §2, §3

[3] = system: M[…] ATCC 4698; assay: In vitro antibacterial activity, agar dilution MIC; conditions: Micrococcus luteus, ATCC4698, 24 h
Experimental: as §1, §2, §3

[4] = system: EN[…] ATCC 8043; assay: In vitro antibacterial activity, agar dilution MIC; conditions: Enterococcus faecium, ATCC8043, 24 h
Experimental: as §1, §2, §3

[5] = system: ESCHERICHIA COLI JUHL; assay: microbe, parasite or virus in culture
[6] = system: STAPHYLOCOCCUS AUREUS NCTC 10649; assay: In vitro antibacterial activity, agar dilution MIC
[7] = system: PSEUDOMONAS CEPACIA 296I; assay: In vitro antibacterial activity, agar dilution MIC; conditions: Burkholderia cepacia; P. cepacia 296I; BHI agar, 35-37° C., 20 to 24 hours; read-out: MIC
[8] = system: STAPHYLOCOCCUS AUREUS 45; assay: In vitro antibacterial activity, agar dilution MIC
[9] = system: STREPTOCOCCUS PYOGENES 930 CONST; assay: In vitro antibacterial activity, agar dilution MIC; conditions: S. pyogenes 930 CONST, BHI agar, 35-37° C., 20 to 24 hours, read-out: MIC
[10] = system: PSEUDOMONAS AERUGINOSA K799/WT; assay: In vitro antibacterial activity, agar dilution MIC; conditions: P. aeruginosa K799/WT, BHI agar, 35-37° C., 20 to 24 hours
[11] = system: STAPHYLOCOCCUS AUREUS ATCC 6538P; assay: In vitro antibacterial activity, agar dilution MIC; conditions: ATCC6538P
[12] = system: ESCHERICHIA COLI H560; assay: In vitro antibacterial activity, agar dilution MIC
[13] = system: PSEUDOMONAS AERUGINOSA BMH10; assay: In vitro antibacterial activity, agar dilution MIC
[14] = system: STREPTOCOCCUS PYOGENES 2548 INDUC; assay: In vitro antibacterial activity, agar dilution MIC; conditions: 24 h
[15] = system: STAPHYLOCOCCUS EPIDERMIDIS 3519; assay: microbe, parasite or virus in culture
[16] = system: STR[…] 508; assay: In vitro antibacterial activity, agar dilution MIC; conditions: Streptococcus agalactiae, 24 h
Experimental: as §1, §2
(§4) After incubation, each disk was read. The minimum inhibitory concentration (MIC) was defined as the lowest concentration of drug yielding no growth, a slight haze, or sparsely isolated colonies on the inoculum spot as compared to the growth control.

[17] = system: STR[…] EES61; assay: In vitro antibacterial activity, agar dilution MIC; conditions: Streptococcus pyogenes, 24 h
Experimental: as §1, §2, §4

[18] = system: STAPHYLOCOCCUS AUREUS CMX 553; assay: In vitro antibacterial activity, agar dilution MIC; conditions: S. aureus CMX 553, BHI agar, 35-37° C., 20 to 24 hours, read-out: MIC
[19] = system: STREPTOCOCCUS BOVIS A5169; assay: In vitro antibacterial activity, agar dilution MIC; conditions: 24 h
[20] = system: STAPHYLOCOCCUS AUREUS A5177; assay: In vitro antibacterial activity, agar dilution MIC; conditions: S. aureus A5177, BHI agar, 35-37° C., 20 to 24 hours, read-out: MIC
[21] = system: PSEUDOMONAS AERUGINOSA A5007; assay: In vitro antibacterial activity, agar dilution MIC; conditions: P. aeruginosa A5007, BHI agar, 35-37° C., 20 to 24 hours
[22] = system: ACINETOBACTER CALCOACETICUS CMX 669; assay: In vitro antibacterial activity, agar dilution MIC; conditions: A. calcoaceticus CMX 669, BHI agar, 35-37° C., 20 to 24 hours
[23] = system: ESCHERICHIA COLI KNK 437; assay: microbe, parasite or virus in culture; conditions: E. coli KNK 437, BHI agar, 35-37° C., 20 to 24 hours
[24] = system: ESCHERICHIA COLI SS; assay: In vitro antibacterial activity, agar dilution MIC
[25] = system: ESCHERICHIA COLI DC-2; assay: In vitro antibacterial activity, agar dilution MIC
[26] = system: ENTEROBACTER AEROGENES ATCC 13048; assay: In vitro antibacterial activity, agar dilution MIC; conditions: Klebsiella aerogenes, ATCC13048; E. aerogenes ATCC 13048; BHI agar, 35-37° C., 20 to 24 hours; read-out: MIC
[27] = system: STAPHYLOCOCCUS AUREUS 1775; assay: In vitro antibacterial activity, agar dilution MIC; conditions: S. aureus 1775, BHI agar, 35-37° C., 20 to 24 hours, read-out: MIC
[28] = system: KLEBSIELLA PNEUMONIAE ATCC 8045; assay: In vitro antibacterial activity, agar dilution MIC
[29] = system: PROVIDENCIA STUARTII CMX 640; assay: microbe, parasite or virus in culture
[30] = system: STAPHYLOCOCCUS AUREUS 642A; assay: In vitro antibacterial activity, agar dilution MIC; conditions: S. aureus 642A, BHI agar, 35-37° C., 20 to 24 hours, read-out: MIC

Structure (SMILES)	MIC [1] [µg/mL]	MIC [3] [µg/mL]	MIC [4] [µg/mL]	MIC [7] [µg/mL]	MIC [9] [µg/mL]	MIC [10] [µg/mL]	MIC [14] [µg/mL]	MIC [19] [µg/mL]	MIC [20] [µg/mL]	MIC [21] [µg/mL]	MIC [22] [µg/mL]	MIC [23] [µg/mL]	MIC [26] [µg/mL]	MIC [27] [µg/mL]	also measured
CC[C@H]1OC(=O)[C@H](C)[C@@H](O[C@H]2C[C@@](C)(OC)[C@@H](O)[C@H](C)O2)[C@H](C)[C@@H](O[C@@H]2O[C@H](C)C[C@H](N(C)C)[C@H]2O)[C@](C)(O)C[C@@H](C)[C@@H](N(C)C)[C@H](C)[C@@H](O)[C@@]1(O)CNC [Compound 17, (9R)-9-deoxo-9-(N,N-dimethylamino)-21-(N-methylamino)-erythromycin A]	1.56 (≈ 1.97 µM)	1.56 (≈ 1.97 µM)	3.1 (≈ 3.91 µM)	> 100	> 100	> 100	50 (≈ 63.1 µM)	0.78 (≈ 0.985 µM)	> 100	> 100	100 (≈ 126 µM)	25 (≈ 31.6 µM)	100 (≈ 126 µM)	> 100	MIC ([2]; 24 h): 3.1 µg/mL (≈ 3.91 µM); MIC ([5]; 24 h): 50 µg/mL (≈ 63.1 µM); MIC ([6]; NCTC10649, 24 h): 6.2 µg/mL (≈ 7.83 µM); MIC ([8]; 24 h): 6.2 µg/mL (≈ 7.83 µM); MIC ([11]; S. aureus ATCC 6538P, BHI agar, 35-37° C., 20 to 24 hours, read-out: MIC): 12.5 µg/mL (≈ 15.8 µM); MIC ([12]; E. coli H560, BHI agar, 35-37° C., 20 to 24 hours, read-out: MIC): 12.5 µg/mL (≈ 15.8 µM); MIC ([13]; P. aeruginosa BMH10, BHI agar, 35-37° C., 20 to 24 hours, read-out: MIC): 100 µg/mL (≈ 126 µM); MIC ([15]; S. epidermidis 3519, BHI agar, 35-37° C., 20 to 24 hours, read-out: MIC): 12.5 µg/mL (≈ 15.8 µM); MIC [16]: 1.56 µg/mL (≈ 1.97 µM); MIC [17]: 0.78 µg/mL (≈ 0.985 µM); MIC [18]: 12.5 µg/mL (≈ 15.8 µM); MIC ([24]; 24 h): 0.78 µg/mL (≈ 0.985 µM); MIC ([25]; 24 h): 50 µg/mL (≈ 63.1 µM); MIC ([28]; ATCC8045, 24 h): 50 µg/mL (≈ 63.1 µM); MIC ([29]; 24 h): > 100 µg/mL
CC[C@H]1OC(=O)[C@H](C)[C@@H](O[C@H]2C[C@@](C)(OC)[C@@H](O)[C@H](C)O2)[C@H](C)[C@@H](O[C@@H]2O[C@H](C)C[C@H](N(C)C)[C@H]2O)[C@](C)(O)C[C@@H](C)[C@@H](N(C)C)[C@H](C)[C@@H](O)[C@@]12CO2 [Compound 8, (9R)-9-deoxo-9-(N,N-dimethylamino)-12,21-epoxyerythromycin A]	0.1 (≈ 0.131 µM)	0.1 (≈ 0.131 µM)	0.02 (≈ 0.0263 µM)	> 100	> 100	> 100	6.2 (≈ 8.15 µM)	0.02 (≈ 0.0263 µM)	50 (≈ 65.7 µM)	> 100	12.5 (≈ 16.4 µM)	50 (≈ 65.7 µM)	> 100	> 100	MIC [30]: 1.56 µg/mL (≈ 2.05 µM); MIC ([2]; P. aeruginosa K799/61, BHI agar, 35-37° C., 20 to 24 hours, read-out: MIC): 12.5 µg/mL (≈ 16.4 µM); MIC ([5]; E. coli JUHL, BHI agar, 35-37° C., 20 to 24 hours, read-out: MIC): 100 µg/mL (≈ 131 µM); MIC ([6]; NCTC10649, S. aureus NCTC 10649, BHI agar, 35-37° C., 20 to 24 hours, read-out: MIC): 0.78 µg/mL (≈ 1.02 µM); MIC ([8]; S. aureus 45, BHI agar, 35-37° C., 20 to 24 hours, read-out: MIC): 0.78 µg/mL (≈ 1.02 µM); MIC ([11]; 24 h): 0.78 µg/mL (≈ 1.02 µM); MIC ([12]; 24 h): 25 µg/mL (≈ 32.9 µM); MIC ([13]; 24 h): > 100 µg/mL; MIC ([15]; 24 h): 0.39 µg/mL (≈ 0.512 µM); MIC ([24]; E. coli SS, BHI agar, 35-37° C., 20 to 24 hours, read-out: MIC): 0.39 µg/mL (≈ 0.512 µM); MIC ([25]; E. coli DC-2, BHI agar, 35-37° C., 20 to 24 hours, read-out: MIC): 50 µg/mL (≈ 65.7 µM); MIC ([28]; ATCC8045, K. pneumoniae ATCC 8045, BHI agar, 35-37° C., 20 to 24 hours, read-out: MIC): 100 µg/mL (≈ 131 µM); MIC ([29]; P. stuartii CMX 640, BHI agar, 35-37° C., 20 to 24 hours): > 100 µg/mL
